{"source": "patent EP1420790B1", "about": "“USE OF BIBN4096 IN COMBINATION WITH OTHER ANTIMIGRAINE DRUGS FOR THE TREATMENT OF MIGRAINE” (Boehringer Ingelheim Pharma GmbH & Co.KG, priority 2001, dated 2003)", "tested_on": "facial skin vasodilation induced by electrical trigeminal ganglion stimulation", "assay": "Measurement of facial skin blood flow (vasodilation induced by electrical trigeminal ganglion stimulation, laser Doppler flowmetry)", "assay_type": "in vivo, rat", "details": "for % of trigeminus stimulation: anaesthetized male wistar rats", "protocol": "Facial skin blood flow was measured by a modified method described by Escott et al. ([…]., Connor, H. E., Brain, S. D. (1995), Trigeminal ganglion stimulation increases facial skin blood flow in the rat a major role for calcitonin gene-related peptide, Brain Research, 669(1), 93-99). Fasted male wistar rats (strain CHbb:THOM, 280-320g) were anaesthetized with sodium pentobarbitone (initially with 60 mg/kg i.p. and maintained throughout the experiment with an intraperitoneal infusion of 30 mg/kg/h through a 23 G needle using a solution of 10 mg/ml). Both sides of the buccal area of the facial skin were shaved and depilated with a commercial depilatory […], Germany). The trachea was cannulated and the animals were artificially respired (80 strokes/min) with room air supplemented with oxygen. The body temperature was maintained at 37°C by an automated heating pad. The left femoral artery and the left femoral vein were cannulated for the continuous measurement of arterial blood pressure and intravenous administration of test compounds, respectively. […] Heart rate was derived from the blood pressure signal. Blood pressure and heart rate were continuously monitored throughout the course of the experiment to assess the level of anaesthesia and to monitor the cardiovascular effects of the drugs used in this study. The animals were placed in a stereotaxic frame and a longitudinal incision was made in the scalp. […] The position of the electrodes in the trigeminal ganglia were checked visually at the end of each experiment following removal of the brain. The trigeminal ganglion was stimulated at 10 Hz, 1 mA, 1 msec for 30 seconds using a stimulator supplied by Hugo Sachs Elektronik (79232 March-Hugstetten, Germany). Microvascular blood flow changes in the facial skin were measured by Laser Doppler flowmetry with a Periflux laser doppler system (PeriFLUX 4001, wave length […]; time constant 3 s, Perimed AB, Järfälla, S-17526, Sweden). Standard laser doppler probes (PROBE 408) were positioned on either side of the face approximately 0.5 cm below the centre of the eye, an area innervated by the maxillary branch (V2) of the trigeminal nerve. Blood flow changes were measured as flux in arbitrary units and expressed as area under the flux curve (mm^2) according to Escott et al. (1995). […] The first stimulation was used as a control for the subsequent stimulations.", "data": [{"smiles": "NCCCC[C@H](NC(=O)[C@@H](Cc1cc(Br)c(O)c(Br)c1)NC(=O)N1CCC(N2Cc3ccccc3NC2=O)CC1)C(=O)N1CCN(c2ccncc2)CC1", "note": "[BIBN 4096 BS, 1-[N^2-[3,5-Dibromo-N-[[4-(3,4-dihydro-2(1H)-oxochinazolin-3-yl)-1-piperidinyl]-carbonyl]-D-tyrosyl]-L-lysyl]-4-(4-pyridinyl)-piperazine]", "values": [{"measurement": "% of trigeminus stimulation", "setting": "BIBN 4096 BS 0.03 mg/kg intravenously 5 min prior to second stimulation, mean ± spread", "result": "60.3 ± 5.1", "unit": "%"}, {"measurement": "% inhibition compared to control value", "setting": "BIBN 4096 BS 0.03 mg/kg intravenously 5 min prior to second stimulation, versus saline control", "result": 27.1, "unit": "%"}]}, {"smiles": "CN1C[C@H](C(=O)N[C@]2(C)O[C@@]3(O)[C@@H]4CCCN4C(=O)[C@H](Cc4ccccc4)N3C2=O)C[C@@H]2c3cccc4[nH]cc(c34)C[C@H]21", "note": "[DHE, Dihydroergotamin]", "values": [{"measurement": "% inhibition compared to control value", "setting": "rat, in vivo", "result": 27.0, "unit": "%"}]}, {"smiles": "CNS(=O)(=O)Cc1ccc2[nH]cc(CCN(C)C)c2c1", "note": "[Sumatriptan, sumatriptan]", "values": [{"measurement": "% of trigeminus stimulation", "setting": "Sumatriptan 1.0 mg/kg intravenously 5 min prior to second stimulation", "result": "68.8 ± 6.8", "unit": "%"}, {"measurement": "% inhibition compared to control value", "setting": "Sumatriptan 1.0 mg/kg intravenously 5 min prior to second stimulation, versus saline control", "result": 16.8, "unit": "%"}]}, {"smiles": "CN(C)CCc1c[nH]c2ccc(C[C@H]3COC(=O)N3)cc12", "note": "[Zolmitriptan, zolmitriptan]", "values": [{"measurement": "% of trigeminus stimulation", "setting": "Zolmitriptan 0.1 mg/kg intravenously 5 min prior to second stimulation", "result": "55.6 ± 4.8", "unit": "%"}, {"measurement": "% inhibition compared to control value", "setting": "Zolmitriptan 0.1 mg/kg intravenously 5 min prior to second stimulation, versus saline control", "result": 32.8, "unit": "%"}]}]}
